“Also recorded” adds a separate entry of the source.
Key:
[1] = target: T1, V2 vasopressin receptor (Homo sapiens, UniProt P30518); test: GPCR Per-Luc assay, HEK293 cells stably expressing Arr-luc234V233 and transfected with V2-TEV; format: cell-based; details: different concentrations, two hours
T1 construct: expressed in transfected cells; host or cells: HEK293 stably expressing Arr-luc234V233
Procedure: HEK cells stably transfected with an arrestin/permuted luciferase construct were transiently transfected with a V2-TEV construct and induced with the agonist, 8AVP, arginine vasopressin (left graph).
Bright-GLO™ luciferase reagent was added to cells.

[2] = target: T2, ADRB2 (Homo sapiens, UniProt P07550); test: GPCR Per-Luc assay, HEK293 cells stably expressing Arr-luc234V233 and transiently transfected with ADRB2-TEV; format: cell-based; details: different concentrations, two hours
T2 construct: expressed in transfected cells

[3] = tested on: Endogenous receptor EDG in HEK293 cells; test: FLIPR and cAMP assays; details: HEK293 endogenous EDG receptors

T1 sequence (P30518 whole entry): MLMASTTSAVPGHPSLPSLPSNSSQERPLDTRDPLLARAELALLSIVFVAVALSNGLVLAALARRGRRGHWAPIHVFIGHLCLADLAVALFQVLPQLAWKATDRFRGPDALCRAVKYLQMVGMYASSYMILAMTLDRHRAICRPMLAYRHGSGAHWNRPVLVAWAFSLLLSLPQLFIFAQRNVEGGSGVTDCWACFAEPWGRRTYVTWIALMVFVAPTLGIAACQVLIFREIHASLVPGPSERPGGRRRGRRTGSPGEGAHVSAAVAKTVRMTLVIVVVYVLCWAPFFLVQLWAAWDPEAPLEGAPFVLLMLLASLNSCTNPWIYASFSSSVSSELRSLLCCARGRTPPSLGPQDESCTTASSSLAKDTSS
T2 sequence (P07550 whole entry): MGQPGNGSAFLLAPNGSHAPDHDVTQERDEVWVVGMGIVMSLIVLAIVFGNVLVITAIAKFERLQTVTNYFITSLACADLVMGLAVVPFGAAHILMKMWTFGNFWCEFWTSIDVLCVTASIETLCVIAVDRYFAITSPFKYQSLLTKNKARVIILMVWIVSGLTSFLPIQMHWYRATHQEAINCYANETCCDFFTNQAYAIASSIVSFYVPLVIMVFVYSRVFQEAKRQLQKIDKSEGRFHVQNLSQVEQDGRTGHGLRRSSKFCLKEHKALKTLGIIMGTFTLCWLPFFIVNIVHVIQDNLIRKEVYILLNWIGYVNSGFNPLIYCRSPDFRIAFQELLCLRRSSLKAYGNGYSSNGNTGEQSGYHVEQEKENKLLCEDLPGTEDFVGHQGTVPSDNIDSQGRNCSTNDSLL

Row | Structure (SMILES) | luciferase activity (β arrestin recruitment to V2) [1] | luciferase activity, compound alone [2] | signal in FLIPR and cAMP assays [3]
1 | CCOc1ccc2c(c1)C1(CCC(OCCN3CCOCC3)CC1)C(=O)N2S(=O)(=O)c1ccc(C(=O)NC(C)(C)C)cc1OC (stereo not drawn) [SR121463] | increasing levels of luminescence were observed with increasing amounts; also recorded: induced a G protein-independent, arrestin-dependent signal | – | –
2 | CCCCCCCCCCCCC/C=C/[C@@H](O)[C@@H](N)COP(=O)(O)O [S1P, sphingosine-1-phosphate] | – | did not affect the luciferase activity | did produce positive signals
